Consider 3 compounds from patent US20020173551A1 (priority 1998, published 2002).

Counter-ions that a name gives are not always drawn. A value given as a limit tells only on which side of the number the result lay.

The test system of data set [1] is HSV I / herpes labialis (cold sores). The data set is described as follows: Case reports: herpes labialis (cold sores) treated with bupropion. It counts as in vivo, humans. From the text:
[…] They have approximately 1 episode per month related to menstrual periods. This has been occurring for the last 6 years and has lasted for at least a week of every month. The severity varied according to […] general state of health and stress levels. The outbreaks lasted at least one week and have made a significant impact on their psychological state. They have not been on systemic therapy.
The third case was patient five, a entrepreneur. They have a coffee shop chain. They are thus very visible and they are very self-conscious of even minor blemishes on their face. They have mild herpes labialis (cold sores), which occurs approximately 5 times a year. They have taken intermittent acyelovir and has even considered continuous acyclovir, because of their image.
[…] They had been paying for acyclovir privately, despite the cost, because of their wish to suppress their frequent and unsightly lesions. […] An attack was treated within 24 hours on the two agents.
[…] This involved the nares, upper and lower lips bilaterally. […] Their partner also developed scarlet fever as well. […] It should be noted that this patient is usually very intolerant of medications and tends to vomit easily.
Her normal herpes labialis lasted between 5 and 7 days.

In data set [2] the test system is genital Herpes Simplex viral infection. The data set can be described thus: Case reports: recurrent genital herpes treated with bupropion. It counts as in vivo, humans. From the text: There were 5-6 recurrences per year. […] The fourth case was patient one, a student with extensive genital herpes. They have had 4 attacks thus far, which have been treated initially with acyclovir and then later with famciclovix. The normal duration of these attacks on these agents was 5-7 days. They were unable to attend classes and took a further 2 weeks before they felt normal. A big feature of their illness is the severe fatigue that precedes and follows their attacks. […] They had not developed any post-[…] fatigue either. They later used a further 2 day course when they felt tingling.

For data set [3], the system named is HSV I / herpes labialis (cold sores). The data set can be described thus: Case reports: herpes labialis (cold sores) treated with bupropion. It counts as in vivo, humans. This is another data set of the same source.
Data set [4] can be described thus: Side effects observed in the treated cases. It counts as in vivo, humans. From the text:
The sixth case was patient two, a reporter. […] This was given for recurrent buttock herpes simplex II, This was ceased and after 1 year, the hypertension and renal impairment reverted to normal. […] This involved the nares, upper and lower lips bilaterally. Even after topical acyclovir, the course of the illness was 2 weeks of significant outbreak. […] Their partner also developed scarlet fever as well. […] It should be noted that this patient is usually very intolerant of medications and tends to vomit easily.

In a further data set the test system is herpes virus. The data set is described as follows: Overall assessment of the case series against other anti-viral agents. It counts as in vivo, humans. The note with it: treatment and prevention of infections caused by the herpes virus. The source says: The physician conducting the above trials has reported that the results thus far have been beyond expectation. They are commented that “not only has there been a success from a completely unlikely agent, but there has also been a success beyond that achieved by the well-established anti-viral agents.”

Data set [5] has as its system neuronal uptake of dopamine (DA). The note with it: cited from earlier work.
The next data set deals with monoamine oxidase. The note with it: cited from earlier work.
The subject of the next data set is herpes simplex II. The data set is described as follows: Case report: recurrent buttock herpes simplex II. It counts as in vivo, humans. The note with it: Example 6, case two. From the text:
The sixth case was patient two, a reporter. […] This was given for recurrent buttock herpes simplex II, This was ceased and after 1 year, the hypertension and renal impairment reverted to normal.

Data set [6] deals with neuronal uptake of noradrenahne (NA). The note with it: cited from earlier work.
Where [7] appears, read: Example 1, case gamma, 4 doses of 150 mg over 2 days.
Where [8] appears, read: Example 4, case one, 300 mg twice daily for 2 days.

Consider `Nc1nc2c(ncn2COCCO)c(=O)[nH]1` [acyclovir], for which, in [1] (Example 3, case five, mild herpes labialis, taken with the tingling), the duration of attacks came to 3 days. Moreover, the severity of attacks entry in data set [1] (Example 3, case five, taken with the tingling) was “barely detectable”. Further, the “lesions during suppressive therapy” value in data set [1] (Example 5, case beta, recurrent herpes labialis) is recorded as “breakthrough lesions”. Also, the “course of the illness (significant outbreak)” value in [1] (Example 7, case three, severe herpes labialis, topical) turned out to be 2 weeks. In addition, the “effect in aborting the attacks” value in [2] (Example 1, case gamma) is “partially effective”. Besides, the “duration of the attacks” value in [2] (Example 1, case gamma, recurrent genital Herpes Simplex, reduced from 2 weeks) is 5 to 7 days. In addition, the “effect of topical therapy” value in [3] (Example 8, medical receptionist, herpes labialis, topical, in the past) is listed as “unhelpful”. Besides, the adverse effects entry in data set [4] (Example 6, case two, given for recurrent buttock herpes simplex II, reverted to normal 1 year after ceasing) is “developed hypertension and mild renal impairment”.

As to `CC(NC(C)(C)C)C(=O)c1cccc(Cl)c1` (racemic) [bupropion, (±)-1-(3-chlorophenyl)-2-[(1,1-dimethylethyl)-amino)-1-propanone hydrochloride], in data set [1] (Example 2, case four, HSV I cold sores, 300 mg twice daily for 2 days from day 2 of outbreak), the “complete resolution of lesions (day of outbreak)” value was no more than 3 days. The “minor recurrence one week later” value in [1] (Example 2, case four, similar dosage) is recorded as “aborted by a similar dosage within the first day”. Further, in [1] (Example 3, case five, 2 tablets of 150 mg when they feel the tingling), the eruptions result was “has not had an eruption in the last 3 months”. For the same compound, in data set [1] (Example 5, case beta, 150 mg every 12 hours for 2 days, two episodes), the “outbreak after tingling of the lip” value is reported as “No outbreak of herpes labialis occurred”. Also, in [1] (Example 7, case alpha), the “lesion by day 5” value is given as “hardly noticeable” and the “time after which the lesion started disappearing” value is 3 days. In addition, the progression of lesions entry in data set [1] (Example 7, case three, within 36 hours of taking 300 mg) was “did not progress from their initial lesion”. In data set [2] (Example 1, case gamma, first use of bupropion), the “time until the attack was aborted” value is listed as no more than 2 days. In addition, in data set [2] (setting [7]), the “outcome of an attack about to commence” value is given as “aborts the attack completely, or reduces it to a small crop of lesions” and the “time to complete healing of the small crop of lesions” value is no more than 48 h. Also, the “recurrence since commencing the regime” value in data set [2] (Example 1, case gamma, over one year) was “There has not been a single significant recurrence”. In addition, in data set [2] (setting [8]), the lesions after treatment result is given as “lesions had cleared completely” and the post-viraemia fatigue result was “had not developed any post-viraemia fatigue”. Also, the “eruptions after a further course at tingling” value in data set [2] (Example 4, case one, further 2 day course) is “did not develop any eruptions”. Besides, in the data set on herpes virus, the “comparison with other anti-viral agents such as acydovir and famciclovir” value was “superior to many other anti-viral agents”. Moreover, the “inhibition of neuronal uptake of dopamine” value in [5] is “relatively weak inhibitor”. Besides, the “inhibition of monoamine oxidase” value in the data set with monoamine oxidase was “does not inhibit”. Further, the “time until the lesion had dried out” value in data set [3] (Example 8, 150 mg twice daily for 2 days) was no more than 24 h. In data set [3] (Example 8, 150 mg twice daily for 2 days, after drying out), the “further time until the lesion was scabbing” value was no more than 12 h. Moreover, the “time to complete resolution (later)” value in data set [3] (Example 8, 150 mg twice daily for 2 days, after scabbing) stood at 3 days. In addition, the eruptions result in the data set on herpes simplex II (taken at onset of pre-outbreak symptoms) was “has not had an eruption since”. The “inhibition of neuronal uptake of noradrenaline” value in data set [6] was “relatively weak inhibitor”. Besides, in data set [4] (Example 7, case alpha), the concurrent scarlet fever entry is recorded as “did not worsen”. In addition, the side effects entry in data set [4] (Example 7, case three, usually very intolerant of medications) is “No side effects were noticed”.

As for `CC(=O)OCC(CCn1cnc2cnc(N)nc21)COC(C)=O` [Famciclovir], in the data set on herpes simplex II (continuous therapy), the “interval between minor outbreaks (approximately once every)” value is reported as 2-3 months and the suppression of disease entry is given as “successfully suppressed their disease”.
